Results: PubChem BioAssay AID318 (DTP/NCI, 2004)
“And” between values parts separate entries of the source, which are not always exact repeats. Identical values can stand only once. Toxic doses and inconclusive results are not listed.

System: BDF1 mice, P815 leukemia ip, survival T/C
Test: NCI In Vivo Anticancer Drug Screen. Data for tumor model P815 Mast Cell Leukemia (Ascitic) (intraperitoneal) in B6D2F1 (BDF1) mice
Settings: higher = longer survival
Description: The antitumor activity of compounds was measured in mice bearing transplantable tumors. Survival or tumor size were measured and the results are expressed as the measurement made in the treated group (T) divided by the measurement made in the vehicle treated control group (C). The tumor model used in this assay is P815 Mast Cell Leukemia (Ascitic) (intraperitoneal) in B6D2F1 (BDF1) mice

[1] = endpoint: survival time, mean or median, dose: 2.5 mg/kg/injection, schedule: Q01DX010 (ip), vehicle: saline
[2] = endpoint: survival time, mean or median, dose: 5.0 mg/kg/injection, schedule: Q01DX010 (ip), vehicle: saline
[3] = endpoint: survival time, mean or median, dose: 10.0 mg/kg/injection, schedule: Q01DX010 (ip), vehicle: saline
[4] = endpoint: survival time, mean or median, dose: 20.0 mg/kg/injection, schedule: Q01DX010 (ip), vehicle: saline
[5] = endpoint: survival time, mean or median, dose: 40.0 mg/kg/injection, schedule: Q01DX010 (ip), vehicle: saline
[6] = endpoint: survival time, mean or median, dose: 8.0 mg/kg/injection, schedule: Q01DX010 (ip), vehicle: saline
[7] = endpoint: survival time, mean or median, dose: 12.0 mg/kg/injection, schedule: Q01DX010 (ip), vehicle: saline
[8] = endpoint: survival time, mean or median, dose: 1.5 mg/kg/injection, schedule: Q01DX010 (ip), vehicle: saline
[9] = endpoint: survival time, mean or median, dose: 3.0 mg/kg/injection, schedule: Q01DX010 (ip), vehicle: saline
[10] = endpoint: survival time, mean or median, dose: 6.0 mg/kg/injection, schedule: Q01DX010 (ip), vehicle: saline
[11] = endpoint: survival time, mean or median, dose: 250.0 mg/kg/injection, schedule: Q01DX010 (ip), vehicle: saline
[12] = endpoint: survival time, mean or median, dose: 7.5 mg/kg/injection, schedule: Q01DX010 (ip), vehicle: saline
[13] = endpoint: survival time, mean or median, dose: 15.0 mg/kg/injection, schedule: Q01DX010 (ip), vehicle: saline
[14] = endpoint: survival time, mean or median, dose: 30.0 mg/kg/injection, schedule: Q01DX010 (ip), vehicle: saline
[15] = endpoint: survival time, mean or median, dose: 60.0 mg/kg/injection, schedule: Q01DX010 (ip), vehicle: saline
[16] = endpoint: survival time, mean or median, dose: 16.0 mg/kg/injection, schedule: Q01DX010 (ip), vehicle: saline
[17] = endpoint: survival time, mean or median, dose: 64.0 mg/kg/injection, schedule: Q01DX010 (ip), vehicle: saline

N#[N+]c1cnc([O-])[nH]c1=O
T/C (endpoint: survival time, mean or median, dose: 1.25 mg/kg/injection, schedule: Q01DX010 (ip), vehicle: saline): 150 % of control
T/C [1]: 205 % of control
T/C [2]: 215 % of control and 150 % of control
T/C [3]: 205 % of control and 161 % of control

CCOC(=O)c1c[nH]c2ccc(N(CCCl)CCCl)cc12
T/C [2]: 100 % of control
T/C [3]: 100 % of control
T/C [4]: 100 % of control
T/C [5]: 105 % of control
T/C (endpoint: survival time, mean or median, dose: 80.0 mg/kg/injection, schedule: Q01DX010 (ip), vehicle: saline): 112 % of control

COS(C)(=O)=O
T/C (endpoint: survival time, mean or median, dose: 12.5 mg/kg/injection, schedule: Q01DX010 (ip), vehicle: saline): 100 % of control
T/C (endpoint: survival time, mean or median, dose: 25.0 mg/kg/injection, schedule: Q01DX010 (ip), vehicle: saline): 100 % of control
T/C (endpoint: survival time, mean or median, dose: 50.0 mg/kg/injection, schedule: Q01DX010 (ip), vehicle: saline): 100 % of control

CCCNC(=NC)c1ccc(NC(=O)c2ccc(C(=O)Nc3ccc(C(=NC)NCCC)cc3)cc2)cc1
T/C (endpoint: survival time, mean or median, dose: 5.2 mg/kg/injection, schedule: Q01DX010 (ip), vehicle: saline): 121 % of control
T/C [6]: 121 % of control
T/C [7]: 121 % of control
T/C (endpoint: survival time, mean or median, dose: 18.0 mg/kg/injection, schedule: Q01DX010 (ip), vehicle: saline): 100 % of control

CC[C@]1(O)C[C@H]2CN(CCc3c([nH]c4ccccc34)[C@@](C(=O)OC)(c3cc4c(cc3OC)N(C=O)[C@H]3[C@@](O)(C(=O)OC)[C@H](OC(C)=O)[C@]5(CC)C=CCN6CC[C@]43[C@@H]65)C2)C1
T/C (endpoint: survival time, mean or median, dose: 0.09 mg/kg/injection, schedule: Q01DX015 (ip), vehicle: carboxymethylcellulose (CMC)): 185 % of control
T/C (endpoint: survival time, mean or median, dose: 0.13 mg/kg/injection, schedule: Q01DX015 (ip), vehicle: carboxymethylcellulose (CMC)): 183 % of control
T/C (endpoint: survival time, mean or median, dose: 0.2 mg/kg/injection, schedule: Q01DX015 (ip), vehicle: carboxymethylcellulose (CMC)): 213 % of control
T/C (endpoint: survival time, mean or median, dose: 0.2 mg/kg/injection, schedule: Q01DX015 (ip), vehicle: saline): 107 % of control
T/C (endpoint: survival time, mean or median, dose: 0.3 mg/kg/injection, schedule: Q01DX015 (ip), vehicle: carboxymethylcellulose (CMC)): 183 % of control
T/C (endpoint: survival time, mean or median, dose: 0.3 mg/kg/injection, schedule: Q01DX015 (ip), vehicle: saline): 95 % of control
T/C (endpoint: survival time, mean or median, dose: 0.45 mg/kg/injection, schedule: Q01DX015 (ip), vehicle: carboxymethylcellulose (CMC)): 102 % of control
T/C (endpoint: survival time, mean or median, dose: 0.8 mg/kg/injection, schedule: Q01DX001 (ip), vehicle: saline): 170 % of control
T/C (endpoint: survival time, mean or median, dose: 1.8 mg/kg/injection, schedule: Q01DX001 (ip), vehicle: saline): 153 % of control
T/C (endpoint: survival time, mean or median, dose: 4.3 mg/kg/injection, schedule: Q01DX001 (ip), vehicle: saline): 113 % of control
T/C (endpoint: survival time, mean or median, dose: 12.5 micrograms/kg/injection, schedule: Q01DX015 (ip), vehicle: carboxymethylcellulose (CMC)): 116 % of control
T/C (endpoint: survival time, mean or median, dose: 25.0 micrograms/kg/injection, schedule: Q01DX015 (ip), vehicle: carboxymethylcellulose (CMC)): 120 % of control
T/C (endpoint: survival time, mean or median, dose: 100.0 micrograms/kg/injection, schedule: Q01DX015 (ip), vehicle: carboxymethylcellulose (CMC)): 170 % of control
T/C (endpoint: survival time, mean or median, dose: 150.0 micrograms/kg/injection, schedule: Q01DX015 (ip), vehicle: saline): 158 % of control

CN(C)c1ccc(/C=C\c2ccnc3ccccc23)cc1
T/C [8]: 90 % of control
T/C [9]: 90 % of control
T/C [10]: 90 % of control
T/C [7]: 90 % of control

O=C(Nc1ccc(C2=NCCN2)cc1)c1ccc(C(=O)Nc2ccc(C3=NCCN3)cc2)cc1
T/C (endpoint: survival time, mean or median, dose: 75.0 mg/kg/injection, schedule: Q01DX010 (ip), vehicle: saline): 158 % of control
T/C (endpoint: survival time, mean or median, dose: 112.0 mg/kg/injection, schedule: Q01DX010 (ip), vehicle: saline): 175 % of control
T/C (endpoint: survival time, mean or median, dose: 167.0 mg/kg/injection, schedule: Q01DX010 (ip), vehicle: saline): 175 % of control
T/C [11]: 108 % of control

N#CCSc1ncnc2nc[nH]c12
T/C [12]: 100 % of control
T/C [13]: 100 % of control and 111 % of control
T/C [14]: 100 % of control and 111 % of control
T/C [15]: 94 % of control and 122 % of control

Nc1ncnc2[nH]ncc12
T/C [8]: 100 % of control
T/C [9]: 100 % of control
T/C [10]: 100 % of control and 104 % of control
T/C [7]: 100 % of control and 109 % of control

Nc1nc(SCc2ccccc2)c2[nH]cnc2n1
T/C [6]: 100 % of control and 105 % of control
T/C [16]: 100 % of control and 111 % of control
T/C [17]: 100 % of control and 122 % of control

COc1ccc(CSc2ncnc3nc[nH]c23)cc1
T/C (endpoint: survival time, mean or median, dose: 62.5 mg/kg/injection, schedule: Q01DX015 (ip), vehicle: carboxymethylcellulose (CMC)): 91 % of control

c1ccc(CNc2ncnc3[nH]ncc23)cc1
T/C [6]: 100 % of control and 109 % of control
T/C [16]: 100 % of control
T/C (endpoint: survival time, mean or median, dose: 32.0 mg/kg/injection, schedule: Q01DX010 (ip), vehicle: saline): 109 % of control
T/C [17]: 95 % of control and 109 % of control

C(CC1CO1)C1CO1 (stereo unspecified)
T/C (endpoint: survival time, mean or median, dose: 40.0 mg/kg/injection, schedule: Q01DX015 (ip), vehicle: saline): 150 % of control
T/C (endpoint: survival time, mean or median, dose: 60.0 mg/kg/injection, schedule: Q01DX015 (ip), vehicle: saline): 172 % of control

Nc1nc(=S)c2[nH]cnc2[nH]1
T/C [1]: 95 % of control
T/C [2]: 122 % of control
T/C [3]: 90 % of control and 118 % of control

Clc1ncnc2nc[nH]c12
T/C [12]: 100 % of control
T/C (endpoint: survival time, mean or median, dose: 9.5 mg/kg/injection, schedule: Q01DX010 (ip), vehicle: saline): 100 % of control
T/C [13]: 100 % of control
T/C [14]: 100 % of control
T/C [15]: 104 % of control and 109 % of control

O=C(Nc1ccc(NC(=O)Nc2ccc(C3=NCCN3)cc2)cc1)Nc1ccc(C2=NCCN2)cc1
T/C (endpoint: survival time, mean or median, dose: 110.0 mg/kg/injection, schedule: Q01DX010 (ip), vehicle: saline): 113 % of control
T/C (endpoint: survival time, mean or median, dose: 165.0 mg/kg/injection, schedule: Q01DX010 (ip), vehicle: saline): 113 % of control
T/C [11]: 100 % of control
T/C (endpoint: survival time, mean or median, dose: 375.0 mg/kg/injection, schedule: Q01DX010 (ip), vehicle: saline): 104 % of control

N=C(N)SCc1c2ccccc2c(CSC(=N)N)c2ccccc12
T/C [2]: 162 % of control
T/C [3]: 175 % of control and 200 % of control
T/C [4]: 150 % of control
T/C [5]: 150 % of control

O=c1[nH]cc(F)c(=O)[nH]1
T/C (endpoint: median survival time, dose: 80.0 mg/kg/injection, schedule: Q04DX003 (ip), vehicle: saline): 118 % of control
T/C [2]: 150 % of control
T/C (endpoint: survival time, mean or median, dose: 5.0 mg/kg/injection, schedule: Q01DX015 (ip), vehicle: carboxymethylcellulose (CMC)): 162 % of control
T/C [3]: 194 % of control and 150 % of control
T/C (endpoint: survival time, mean or median, dose: 10.0 mg/kg/injection, schedule: Q01DX015 (ip), vehicle: carboxymethylcellulose (CMC)): 174 % of control
T/C (endpoint: survival time, mean or median, dose: 15.0 mg/kg/injection, schedule: Q01DX015 (ip), vehicle: carboxymethylcellulose (CMC)): 199 % of control and 174 % of control
T/C [4]: 195 % of control and 216 % of control
T/C (endpoint: survival time, mean or median, dose: 20.0 mg/kg/injection, schedule: Q01DX015 (ip), vehicle: carboxymethylcellulose (CMC)): 189 % of control
T/C [5]: 95 % of control and 111 % of control

CN(C)[C@@H]1C(=O)C(C(N)=O)=C(O)[C@@]2(O)C(=O)C3=C(O)c4c(O)cccc4C[C@H]3C[C@@H]12
T/C (endpoint: survival time, mean or median, dose: 30.0 mg/kg/injection, schedule: Q01DX015 (ip), vehicle: alkali diluted with saline): 117 % of control

CCOC(=O)c1[nH]c2ccccc2c1CN(CCCl)CCCl
T/C [3]: 105 % of control
T/C [4]: 115 % of control
T/C [5]: 115 % of control

CN(C)CC(=O)c1ccc(O)c(O)c1
T/C (endpoint: survival time, mean or median, dose: 200.0 mg/kg/injection, schedule: Q01DX010 (ip), vehicle: saline): 120 % of control
T/C (endpoint: survival time, mean or median, dose: 300.0 mg/kg/injection, schedule: Q01DX010 (ip), vehicle: saline): 100 % of control
T/C (endpoint: survival time, mean or median, dose: 450.0 mg/kg/injection, schedule: Q01DX010 (ip), vehicle: saline): 95 % of control

C=CC(CN1CC1)OC(C)=O (stereo unspecified)
T/C (endpoint: survival time, mean or median, dose: 2.0 mg/kg/injection, schedule: Q01DX010 (ip), vehicle: saline): 94 % of control
T/C (endpoint: survival time, mean or median, dose: 4.0 mg/kg/injection, schedule: Q01DX010 (ip), vehicle: saline): 100 % of control
T/C [6]: 100 % of control
